Measured values taken from PMC11926786, “Effect of Lipidation on the Structure, Oligomerization, and Aggregation of Glucagon-like Peptide 1” (Bioconjugate Chemistry, 2025).
“Also recorded” adds a separate entry of the source. Like-named read-outs stand apart in the source and are kept apart here. Values belong to the molecule of their own block, whether it stands above or below them. *1 amine or outer side, *2 acyl side, *3 side chain or, on linkers, in order; H or OH if unused. Where a SMILES comes first, the peptide text is derived from it. Side-chain parts run from the residue outwards. The star is where a group is joined. γGlu = O=C(O)[C@H](CCC(=O)[*:2])N[*:1]; Palmitoyl = CCCCCCCCCCCCCCCC(=O)*

What was measured:
[1] = Aggregation behaviour and aggregate morphology of aged samples (TEM, far-UV CD); assay type: physicochemical; conditions: 25 mM phosphate
[2] = pH-dependent peptide solubility; assay type: physicochemical; conditions: from solid: ca. 0.5 mg lyophilized powder + 500 μL 25 mM phosphate, citrate or Tris; pH 2.5 to 8.5 in 0.5 steps; ca. 5 min, room temperature; 0.22 μm filtered; A280; soluble = concentrations above 50 μM, insoluble = not above 1 μM
Description: Figure 1D illustrates the solubility of each lipidated analogue and nonlipidated GLP-1-Am at different pH values. […] Isoelectric points (pI) of the analogues were determined using isoelectric focusing gel electrophoresis (Figure S1), and the determined values are given in Figure 1D in the column next to the solubility chart. […] It is interesting to note that these both form well-defined oligomeric states (see later sections), in which it is likely that the local chemical environment of the individual ionizable groups has changed. […] Although there have been attempts to rationalize the solubility and even develop solubility predictors for peptide/protein analogs containing non-natural amino acids and amino acid derivatives, the prediction of the solubility of lipidated analogues remains challenging due to its complexity.[43],[44]
The peptide solubility was tested in the individual buffers differing by 0.5 on the pH scale (i.e., pH 2.5, 3.0, 3.5, 4.0, ...). […] Subsequently, the concentration of the peptide was determined spectrophotometrically (Cary 60 UV–vis, Agilent Technologies) using the absorption at 280 nm and a theoretical extinction coefficient of 6990 M^–1 cm^–1 at 280 nm.

[3] = Isoelectric point by isoelectric focusing gel electrophoresis; assay type: physicochemical; conditions: printed in Figure 1D
Description: Figure 1D illustrates the solubility of each lipidated analogue and nonlipidated GLP-1-Am at different pH values. […] Isoelectric points (pI) of the analogues were determined using isoelectric focusing gel electrophoresis (Figure S1), and the determined values are given in Figure 1D in the column next to the solubility chart.

[4] = Far-UV CD of freshly dissolved samples, α-helical content from MRE222; assay type: physicochemical; conditions: 85 μM, 25 mM phosphate pH 7.5, room temperature, estimated from MRE222
[5] = Size-exclusion chromatography of oligomeric species; assay type: physicochemical; conditions: freshly prepared, 135 μM
Description: Analytical SEC was performed on an KTA FPLC system (GE Healthcare), using a Superdex 200 Increase 10/300 column (GE Healthcare). Samples were loaded using a 200 μL loop. Prior to loading, the samples were filtered through a 0.22 μm filter (Millex, PVDF Membrane) to avoid blocking the column by large aggregates. All samples were eluted at a flow rate of 0.75 mL min^–1 at room temperature, and UV absorbance detection at 280 nm through a 0.5 cm flow cell was used. A set of globular protein standards (GE Healthcare) was used to construct a calibration curve for the column, Figure S9.
Calibration curve for Superdex 200 Increase 10/300 column
Globular protein standards (GE Healthcare) were used for column calibration, (Fig. S9C). The gel phase
distribution parameter, Kav, of each protein standard was calculated as
where Ve is an elution volume of a protein standard, V0 is the void volume of the column (determined
used. The logarithm of the molecular weight of each protein standard was plotted against its Kav. A
linear regression of this plot was used to determine the molecular weight of any eluting species
For Stoke’s radius (RSt), a calibration plot of √−log(Kav) against
RSt and a linear regression was used.
Figure S9: Calibration of a Superdex 200 Increase 10/300 column. Calibrations on the molecular weight (A) and on the Stoke’s […]

[6] = Sedimentation velocity analytical ultracentrifugation of oligomeric species; assay type: physicochemical; conditions: freshly prepared samples, pH 7.5; determined by both AUC and SEC
Description: Sedimentation velocity experiments were performed using a Beckman Optima XL-I Analytical Ultracentrifuge equipped with an An-60 Ti rotor. Samples of 85 μM peptide concentration were freshly prepared before the measurement. After a 2 h temperature equilibration of samples in the centrifuge to 20 °C, the experiment was performed with centrifugation at 50,000 rpm. The interference sedimentation curves were collected as 150 scans (approximately 12 h run time) and fitted to a continuous c(s) distribution model implemented in the Sedfit program.[48],[52],[53] The sedimentation coefficient was corrected for the standard state of the water at 20 °C (s20,w). The molecular weight and relative amount of each detected species were calculated using the Sedfit program.

[7] = cited from earlier work
[8] = set-up: method as in 2 sources, one per row (each row's own in cited_ref): ref Venanzi et al., 20 ||| ref 20 = [20]; PMID 32780784; doi:10.1039/D0SM01011A; Venanzi M.; Savioli M.; Cimino R.; Gatto E.; Palleschi A.; Ripani G.; Cicero D.; Placidi E.; Orvieto F.; Bianchi E. A Spectroscopic and Molecular Dynamics Study on the Aggregation Process of; conditions: semaglutide without C-terminal amidation, cited from earlier work

Molecule: CCCCCCCCCCCCCCCC(=O)N[C@@H](CCC(=O)NCCCC[C@H](NC(=O)[C@@H](N)Cc1c[nH]cn1)C(=O)N[C@@H](CCC(=O)O)C(=O)NCC(=O)N[C@H](C(=O)N[C@@H](Cc1ccccc1)C(=O)N[C@H](C(=O)N[C@@H](CO)C(=O)N[C@@H](CC(=O)O)C(=O)N[C@H](C(=O)N[C@@H](CO)C(=O)N[C@@H](CO)C(=O)N[C@@H](Cc1ccc(O)cc1)C(=O)N[C@@H](CC(C)C)C(=O)N[C@@H](CCC(=O)O)C(=O)NCC(=O)N[C@@H](CCC(N)=O)C(=O)N[C@@H](C)C(=O)N[C@@H](C)C(=O)N[C@@H](CCCNC(=N)N)C(=O)N[C@@H](CCC(=O)O)C(=O)N[C@@H](Cc1ccccc1)C(=O)N[C@H](C(=O)N[C@@H](C)C(=O)N[C@@H](Cc1c[nH]c2ccccc12)C(=O)N[C@@H](CCCNC(=N)N)C(=O)N[C@H](C(=O)N[C@@H](CCCNC(=N)N)C(=O)NCC(=O)N[C@@H](CCCNC(=N)N)C(=O)NCC(N)=O)C(C)C)[C@@H](C)CC)C(C)C)[C@@H](C)O)[C@@H](C)O)C(=O)O [GLP-1-Am (2, γ-Glu-palm)] (H-HK([γGlu-Palmitoyl])EGTFTSDVSSYLEGQAAREFIAWRVRGRG-NH2)
aggregation at pH 3 [1]: rapidly aggregate forming short fibril-like species with high β-sheet content; also recorded: analogue not soluble; (at pH 3, there is rapid formation of β-structure-rich fibrils)

isoelectric point (pI) [3]: 7.4 | α-helix content [4]: 21% | SEC peak elution volume(s) ([5]; 25 mM phosphate pH 7.5, Superdex 200 Increase 10/300, 0.75 mL min–1, room temperature, A280): 19.2 mL | SEC n-mer ([5]; 25 mM phosphate pH 7.5, Superdex 200 Increase 10/300, calculated from calibration with globular protein standards): 1–2
Molecule: CC[C@H](C)[C@H](NC(=O)[C@H](Cc1ccccc1)NC(=O)[C@H](CCC(=O)O)NC(=O)[C@H](CCCCN)NC(=O)[C@H](C)NC(=O)[C@H](C)NC(=O)[C@H](CCC(N)=O)NC(=O)CNC(=O)[C@H](CCC(=O)O)NC(=O)[C@H](CC(C)C)NC(=O)[C@H](Cc1ccc(O)cc1)NC(=O)[C@H](CO)NC(=O)[C@H](CO)NC(=O)[C@@H](NC(=O)[C@H](CC(=O)O)NC(=O)[C@H](CO)NC(=O)[C@@H](NC(=O)[C@H](Cc1ccccc1)NC(=O)[C@@H](NC(=O)CNC(=O)[C@H](CCC(=O)O)NC(=O)[C@H](C)NC(=O)[C@@H](N)Cc1cnc[nH]1)[C@@H](C)O)[C@@H](C)O)C(C)C)C(=O)N[C@@H](C)C(=O)N[C@@H](Cc1c[nH]c2ccccc12)C(=O)N[C@@H](CC(C)C)C(=O)N[C@H](C(=O)N[C@@H](CCCCN)C(=O)NCC(=O)N[C@@H](CCCNC(=N)N)C(=O)NCC(N)=O)C(C)C [GLP-1-Am]
pH range of solubility [2]: soluble at all pH values tested; also recorded: soluble over the entire range studied | oligomerization [6]: dimer and hexamer, less stable, detectable only by AUC, α-helical

Molecule: GLP-1
half-life in vivo ([7]; in vivo): circa 2 min

Molecule: liraglutide: marketed lipidated GLP-1 analogue, palmitic acid (C16) linked to Lys20 via a γ-glutamic acid spacer
half-life in vivo ([7]; pharmacokinetic data): 9 to 13 h

Molecule: semaglutide: marketed lipidated GLP-1 analogue, stearic diacid (C18) lipidation at Lys20
oligomeric state [8]: equilibrium of monomers and dimers | aggregation on incubation ([8]; ref Venanzi et al., 20): aggregation was observed after several weeks of incubation | half-life in vivo ([7]; in vivo): 170 h
